In patent publication US20050276762A1, “Topical compositions containing 5'-adenosine-diphosphate ribose” (priority 2004, published 2005):

Assays:
Human A549 cells = conditions: for cytoprotection against H2O2 (in words): same concentration as ADP-ribose (25 or 50 μg/ml)
[1] = biological target: poly (ADP-ribose) polymerase (PARP) (Homo sapiens, UniProt P09874); assay: PARP assay (in vitro PARP inhibition); assay type: biochemical; conditions: same concentration as ADP-ribose (4 to 10 mM); FIG. 2
Description: 1. […] 2. Cover the plate with an adhesive plate sealer and incubate for 2 hours at room temperature (or overnight at 2-8° C.). 1. […] After the last wash, remove any remaining PBS by decanting. Invert the plate and blot it against clean paper toweling. Note, at this time plates can be air dried and stored covered at room temperature for later use. 2. Block the wells by adding 50 μL of Strep Diluent to each well. 3. Cover the plate with an adhesive plate sealer and incubate for 1 hour at room temperature (or overnight at 2-8° C.). […] PARP will autoribosylate in the presence of NAD. 1. […] After the last wash, remove any remaining PBS by decanting. Invert the plate and blot it against clean paper toweling. 2. […] 3. Add inhibitor of interest. The final reaction volume is 50 μL/well. […] Enzyme is added last. • For 24 wells: Make for 20=2×0.5 units=10 units • 20 wells×5 μL=100 μL 10 μL enzyme+90 μl of 1× PARP buffer […] 5. Incubate the plate for 30 minutes at room temperature. The extent of ribosylation is time dependant; therefore this step can be extended if desired. 1. […] After the last wash, remove any remaining PBS by decanting. Invert the plate and blot it against clean paper toweling. 2. Dilute Strep-HRP • Dilute 1:500 • For 20 wells=1,100 μL Strep diluent+2.2 μL Strep-HRP • Add 50 μL of diluted Strep-HRP to each well. 3. Incubate for 30 minutes at 37° C. […] After the last wash, remove any remaining PBS by decanting. Invert the plate and blot it against clean paper toweling. 5. Add 50 μL TACS-Sapphire dye to each well. Incubate for 10 minutes in the dark.

poly (ADP-ribose) polymerase (PARP), sequence (P09874 whole entry): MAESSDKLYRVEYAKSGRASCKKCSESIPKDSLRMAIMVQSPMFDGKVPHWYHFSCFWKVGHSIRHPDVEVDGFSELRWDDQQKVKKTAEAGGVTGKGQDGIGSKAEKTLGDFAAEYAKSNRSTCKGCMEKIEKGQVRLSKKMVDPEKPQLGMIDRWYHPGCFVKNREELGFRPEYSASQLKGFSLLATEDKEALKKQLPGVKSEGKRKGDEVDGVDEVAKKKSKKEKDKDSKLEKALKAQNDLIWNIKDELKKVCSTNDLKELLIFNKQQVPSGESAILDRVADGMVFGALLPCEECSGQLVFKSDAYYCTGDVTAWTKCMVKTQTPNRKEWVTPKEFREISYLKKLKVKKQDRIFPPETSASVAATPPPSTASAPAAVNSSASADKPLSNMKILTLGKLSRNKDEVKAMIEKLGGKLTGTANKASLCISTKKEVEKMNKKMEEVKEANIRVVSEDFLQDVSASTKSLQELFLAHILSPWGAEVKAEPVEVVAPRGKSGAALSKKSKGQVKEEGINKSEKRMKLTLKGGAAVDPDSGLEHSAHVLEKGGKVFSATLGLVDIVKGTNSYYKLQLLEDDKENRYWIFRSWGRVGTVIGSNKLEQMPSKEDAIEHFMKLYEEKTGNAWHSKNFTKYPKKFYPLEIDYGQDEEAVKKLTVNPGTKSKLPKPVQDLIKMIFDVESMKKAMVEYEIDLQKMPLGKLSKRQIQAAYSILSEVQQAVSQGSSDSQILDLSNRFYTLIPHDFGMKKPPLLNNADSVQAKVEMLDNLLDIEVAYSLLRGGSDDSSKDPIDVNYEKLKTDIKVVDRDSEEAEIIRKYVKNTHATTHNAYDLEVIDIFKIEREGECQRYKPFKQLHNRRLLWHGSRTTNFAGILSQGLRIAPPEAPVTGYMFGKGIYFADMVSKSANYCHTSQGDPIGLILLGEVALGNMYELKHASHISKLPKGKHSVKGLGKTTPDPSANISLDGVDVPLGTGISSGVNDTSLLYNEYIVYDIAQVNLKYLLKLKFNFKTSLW

SMILES | protection of cells from cytotoxicity mediated cell death (in words) (Human A549 cells) | inhibition of PARP activity (in words) [1] | cytoprotection against H2O2 (in words) (Human A549 cells) | protection from H2O2 cytotoxicity (Human A549 cells) [%]
N=c1c2ncn3c2ncn1[C@@H]1O[C@H](COP(=O)(O)OP(=O)(O)OC[C@H]2O[C@@H]3[C@H](O)[C@@H]2O)[C@@H](O)[C@H]1O [cADP-ribose] | unable to protect cells from cytotoxicity mediated cell death |  |  | 
Nc1ncnc2c1ncn2[C@@H]1O[C@H](CO)[C@@H](O)[C@H]1O [adenosine] |  | unable to inhibit PARP activity | cytoprotection was specific to ADP-ribose | 
Nc1ncnc2c1ncn2[C@@H]1O[C@H](COP(=O)(O)OP(=O)(O)O[C@H]2O[C@H](CO)[C@@H](O)[C@H](O)[C@H]2O)[C@@H](O)[C@H]1O [ADP-glucose] |  | unable to inhibit PARP activity | cytoprotection was specific to ADP-ribose | ~25
Nc1ncnc2c1ncn2[C@@H]1O[C@H](COP(=O)(O)O)[C@@H](O)[C@H]1O [AMP] |  | unable to inhibit PARP activity | cytoprotection was specific to ADP-ribose | 
